Measurements taken from patent publication US20260138959A1, “QUINAZOLINE DERIVATIVE COMPOUND AND USE THEREOF” (VORONOI INC., priority 2021, published 2026).
Read-outs that look alike come from different tables or passages of the source.

Key:
[1] = molecular target: T1, human PDGFR-β(wt) (Homo sapiens, UniProt P09619); test: Enzyme inhibitory activity, ADP-Glo kinase assay, PDGFR-β(wt); type: biochemical; conditions: read-out: PDGFR-β (IC50 class)
T1 construct: purchased Signalchem P13-11G
Description: In order to evaluate the inhibitory activity of the compounds synthesized according to the above examples on PDGFR-α(wt), PDGFR-β(wt), c-KIT(wt), and c-KIT(D816V) kinases, the following method was performed. The compounds of examples were reacted with purified human PDGFR-α(wt) (Signalchem #P12-18G) enzyme, human PDGFR-β(wt) (Signalchem #P13-11G) enzyme, human c-KIT(wt) (Signalchem #K06-11BG) enzyme, human c-KIT(D816V) (Signalchem #C06-12LG) enzyme, and the enzyme inhibitory abilities were evaluated by the following method.
The reaction buffer was used as a composition of 40 mM Tris-HCl pH7.4, 20 mM MgCl2, 0.5 mg/ml BSA, 50 μM DTT, and the reactions of all the tests were carried out on the reaction buffer. The compound was diluted in 12 steps using a serial dilution method from a 10 mM DMSO stock, and the enzyme activity was measured at a final compound concentration of 10˜0.00005645 μM. During the test, the enzyme activity was confirmed using in vitro ADP-Glo™ kinase assay (Promega) after reacting with the proper concentration of human PDGFR-α(wt) enzyme, human PDGFR-β(wt), human c-KIT(wt) enzyme, and human c-KIT(D816V) enzyme with purified ATP and enzyme substrate at 25° C. for 1˜2 hours. At a ratio of 2:2:1, an enzyme-active reaction solution, an ADP-Glo reaction solution, and an enzyme-active detection solution were reacted to measure the inhibition of the enzyme's activity with luminoscence. Based on the […] of the enzyme activity of the solvent control that was not treated with the compound, the degree of enzyme activity inhibition was calculated according to the treatment concentration of each compound, and the concentration of each compound that inhibits 50% of enzyme activity was determined as IC50 (nM) value and the value was obtained by using GraphPad Prism 8.3.0 (GraphPad software Inc., San Diego) software. (A: IC50≤50 nM; B: 50 nM<IC50≤100 nM; C: 100 nM<IC50≤500 nM; D: IC50>500 nM).

[2] = system: Ba/F3-c-KIT(D816V); test: Proliferation inhibitory activity on Ba/F3 cell (CellTiter-Glo, 72 hours), c-KIT(D816V); type: cell-based
Outline: (§1)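 Ba/F3 lines (TEL-PDGFRα WT, TEL-PDGFRβ WT, c-KIT D816V, V560G/D816V, D814Y) were seeded at 3×10^3 cells/well and exposed to 12-point, 3-fold dilutions (final 0.00005-10 μM) for 72 h at 37 °C. CellTiter-Glo signal was read after about 10 min mixing; GI50 (nM) was calculated relative to vehicle.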

[3] = system: c-KIT V560G/D816V; test: Proliferation inhibitory activity on Ba/F3 cell (CellTiter-Glo, 72 hours), c-KIT V560G/D816V; type: cell-based; conditions: read-out: Cell (nM) c-KIT V560G/D816V (GI50 class)
Outline: as §1

[4] = Mus musculus, BaF3, read-out: Ba/F3 (nM) c-KIT (D816V) (GI50 class)
[5] = Mus musculus, BaF3, c-KIT V560G/D816V cells

T1 sequence (P09619 33-1106): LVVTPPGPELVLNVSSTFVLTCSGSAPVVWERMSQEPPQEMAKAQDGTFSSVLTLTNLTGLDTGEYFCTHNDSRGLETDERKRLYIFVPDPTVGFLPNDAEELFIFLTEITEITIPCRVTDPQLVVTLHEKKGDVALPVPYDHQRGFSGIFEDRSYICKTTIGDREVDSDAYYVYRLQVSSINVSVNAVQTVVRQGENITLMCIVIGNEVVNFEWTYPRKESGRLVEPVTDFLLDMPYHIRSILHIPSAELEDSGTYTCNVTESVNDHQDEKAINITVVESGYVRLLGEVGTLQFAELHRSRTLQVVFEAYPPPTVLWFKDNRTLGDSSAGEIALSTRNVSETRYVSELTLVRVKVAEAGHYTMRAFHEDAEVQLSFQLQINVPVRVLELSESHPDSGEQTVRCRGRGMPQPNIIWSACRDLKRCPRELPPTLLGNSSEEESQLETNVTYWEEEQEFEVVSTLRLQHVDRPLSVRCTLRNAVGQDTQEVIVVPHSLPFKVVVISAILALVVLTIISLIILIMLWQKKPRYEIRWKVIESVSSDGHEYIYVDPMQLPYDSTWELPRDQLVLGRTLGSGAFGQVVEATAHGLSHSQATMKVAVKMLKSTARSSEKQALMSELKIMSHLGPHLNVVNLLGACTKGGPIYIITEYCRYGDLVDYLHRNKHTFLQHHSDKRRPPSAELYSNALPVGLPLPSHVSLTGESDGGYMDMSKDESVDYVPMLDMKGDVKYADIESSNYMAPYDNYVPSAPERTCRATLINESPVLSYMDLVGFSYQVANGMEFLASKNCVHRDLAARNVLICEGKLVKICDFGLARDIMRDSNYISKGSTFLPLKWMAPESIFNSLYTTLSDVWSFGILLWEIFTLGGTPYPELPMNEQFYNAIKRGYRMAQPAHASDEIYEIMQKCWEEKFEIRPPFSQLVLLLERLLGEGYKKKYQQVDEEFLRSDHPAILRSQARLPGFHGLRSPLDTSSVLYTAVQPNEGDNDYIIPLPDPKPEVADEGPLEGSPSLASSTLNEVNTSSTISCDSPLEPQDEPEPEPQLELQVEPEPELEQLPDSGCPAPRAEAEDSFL

Row | Compound | IC50 [1] | GI50 [2, 4] | GI50 [3, 5] | GI50 ([2]; read-out: Ba/F3 (nM) c-KIT (D816V) (GI50 class)) | GI50 ([3]; c-KIT V560G/D816V cells)
1 | COc1cc2c(-c3ccc(NC(=O)Cc4ccc(C(F)(F)F)cc4)cc3)ncnc2cc1OCCCN1C[C@@H]2C[C@H]1CN2C [Example 32, N-(4-(6-methoxy-7-(3-((1S,4S)-5-methyl-2,5-diazabicyclo[2.2.1]heptane-2-yl)propoxy)quinazolin-4-yl)phenyl)-2-(4-(trifluoromethyl)phenyl)acetamide] | ≤ 50 nM | ≤ 200 nM | ≤ 200 nM |  | 
2 | COc1cc2c(-c3ccc(NC(=O)Cc4ccc(C(F)(F)F)cc4)cc3)ncnc2cc1OCC1CCN(C)CC1 [Example 56, N-(4-(6-methoxy-7-((1-methylpiperidin-4-yl)methoxy)quinazolin-4-yl)phenyl)-2-(4-(trifluoromethyl)phenyl)acetamide] | ≤ 50 nM |  | ≤ 200 nM |  | 
3 | COc1cc2c(-c3ccc(NC(=O)Cc4ccc(C(F)(F)F)nc4)cc3)ncnc2cc1OCC1CCNCC1 [Example 59, N-(4-(6-methoxy-7-(piperidin-4-ylmethoxy)quinazolin-4-yl)phenyl)-2-(6-(trifluoromethyl)pyridin-3-yl)acetamide] | ≤ 50 nM | 200 to 500 nM |  |  | 
4 | COc1cc2c(-c3ccc(NC(=O)Cc4ccc(Cl)nc4)cc3)ncnc2cc1OCC1CCNCC1 [Example 69, 2-(6-chloropyridin-3-yl)-N-(4-(6-methoxy-7-(piperidin-4-ylmethoxy)quinazolin-4-yl)phenyl)acetamide] | ≤ 50 nM | ≤ 200 nM |  |  | 
5 | COc1cc2c(-c3ccc(NC(=O)CCc4ccccc4)cc3)ncnc2cc1OCC1CCNCC1 [Example 71, N-(4-(6-methoxy-7-(piperidin-4-ylmethoxy)quinazolin-4-yl)phenyl)-3-phenylpropanamide] |  | ≤ 200 nM | 200 to 500 nM |  | 
6 | COc1cc2c(-c3ccc(NC(=O)Cc4ccc(C(F)(F)F)cc4)cc3)ncnc2cc1OC[C@@H]1CCCNC1 [Example 73, (R)-N-(4-(6-methoxy-7-(piperidin-3-ylmethoxy)quinazolin-4-yl)phenyl)-2-(4-(trifluoromethyl)phenyl)acetamide] |  | ≤ 200 nM | ≤ 200 nM |  | 
7 | COc1cc2c(-c3ccc(NC(=O)Cc4ccc(Cl)c(C(F)(F)F)c4)cc3)ncnc2cc1OCC1CCNCC1 [Example 77, 2-(4-chloro-3-(trifluoromethyl)phenyl)-N-(4-(6-methoxy-7-(piperidin-4-ylmethoxy)quinazolin-4-yl)phenyl)acetamide] |  | ≤ 200 nM | 200 to 500 nM |  | 
8 | CCN1CCC(COc2cc3ncnc(-c4ccc(NC(=O)Cc5ccc(Cl)c(C(F)(F)F)c5)cc4)c3cc2OC)CC1 [Example 78, 2-(4-chloro-3-(trifluoromethyl)phenyl)-N-(4-(7-((1-ethylpiperidin-4-yl)methoxy)-6-methoxyquinazolin-4-yl)phenyl)acetamide] |  | ≤ 200 nM | ≤ 200 nM |  | 
9 | CCN1CCC(COc2cc3ncnc(-c4ccc(NC(=O)Cc5ccc(C(F)(F)F)c(F)c5)cc4)c3cc2OC)CC1 [Example 80, N-(4-(7-((1-ethylpiperidin-4-yl)methoxy)-6-methoxyquinazolin-4-yl)phenyl)-2-(3-fluoro-4-(trifluoromethyl)phenyl)acetamide] |  | ≤ 200 nM | ≤ 200 nM |  | 
10 | COCCN1CCC(COc2cc3ncnc(-c4ccc(NC(=O)Cc5ccc(C(F)(F)F)nc5)cc4)c3cc2OC)CC1 [Example 96, N-(4-(6-methoxy-7-((1-(2-methoxyethyl)piperidin-4-yl)methoxy)quinazolin-4-yl)phenyl)-2-(6-(trifluoromethyl)pyridin-3-yl)acetamide] | ≤ 50 nM |  | ≤ 200 nM |  | 
11 | COc1cc2c(-c3ccc(NC(=O)Cc4ccc(C(F)(F)F)nc4)cc3)ncnc2cc1OCC1CCN(C)CC1 [Example 101, N-(4-(6-methoxy-7-((1-methylpiperidin-4-yl)methoxy)quinazolin-4-yl)phenyl)-2-(6-(trifluoromethyl)pyridin-3-yl)acetamide] | ≤ 50 nM |  | ≤ 200 nM |  | 
12 | CCN1CCC(Oc2cc3c(-c4ccc(NC(=O)Cc5ccc(C(F)(F)F)cc5)cc4)ncnc3cc2OC)CC1 [Example 123, N-(4-(6-((1-ethylpiperidin-4-yl)oxy)-7-methoxyquinazolin-4-yl)phenyl)-2-(4-(trifluoromethyl)phenyl)acetamide] |  | ≤ 200 nM | ≤ 200 nM |  | 
13 | COc1cc2ncnc(-c3ccc(NC(=O)Cc4ccc(C(F)(F)F)cc4)cc3)c2cc1OCCCN1CCN(C2CC2)CC1 [Example 127, N-(4-(6-(3-(4-cyclopropylpiperazin-1-yl)propoxy)-7-methoxyquinazolin-4-yl)phenyl)-2-(4-(trifluoromethyl)phenyl)acetamide] |  | ≤ 200 nM | 200 to 500 nM |  | 
14 | COc1cc2ncnc(-c3ccc(NC(=O)Cc4ccc(C(F)(F)F)cc4)cc3)c2cc1OCC1CCCN(C(=O)OC(C)(C)C)C1 (stereo not drawn) [Example 130, tert-butyl 3-(((7-methoxy-4-(4-(2-(4-(trifluoromethyl)phenyl)acetamido)phenyl)quinazolin-6-yl)oxy)methyl)piperidin-1-carboxylate] | ≤ 50 nM | 200 to 500 nM |  |  | 
15 | COc1cc2ncnc(-c3ccc(NC(=O)Cc4ccc(C(F)(F)F)cc4)cc3)c2cc1OC1CCN(C(=O)OC(C)(C)C)CC1 [Example 137, tert-butyl 4-((7-methoxy-4-(4-(2-(4-(trifluoromethyl)phenyl)acetamido)phenyl)quinazolin-6-yl)oxy)piperidin-1-carboxylate] | ≤ 50 nM | 200 to 500 nM |  |  | 
16 | COc1cc2ncnc(-c3ccc(NC(=O)Cc4ccc(C(F)(F)F)cc4)cc3)c2cc1OC1CCNC1 (stereo not drawn) [Example 139, N-(4-(7-methoxy-6-(pyrrolidin-3-yloxy)quinazolin-4-yl)phenyl)-2-(4-(trifluoromethyl)phenyl)acetamide] |  | ≤ 200 nM | > 500 nM |  | 
17 | COc1cc2c(-c3ccc(NC(=O)Cc4ccc(C(F)(F)F)cc4)cc3)ncnc2cc1OCCCN1CCN(C(C)=O)CC1 [Example 141, N-(4-(7-(3-(4-acetylpiperazin-1-yl)propoxy)-6-methoxyquinazolin-4-yl)phenyl)-2-(4-(trifluoromethyl)phenyl)acetamide] |  | ≤ 200 nM | ≤ 200 nM |  | 
18 | COc1cc2c(-c3ccc(NC(=O)Cc4ccc(C(F)(F)F)cc4)cc3)ncnc2cc1OCCCN1CCN(C)C(=O)C1 [Example 143, N-(4-(6-methoxy-7-(3-(4-methyl-3-oxopiperazin-1-yl)propoxy)quinazolin-4-yl)phenyl)-2-(4-(trifluoromethyl)phenyl)acetamide] |  | ≤ 200 nM | ≤ 200 nM |  | 
19 | COc1cc2ncnc(-c3ccc(NC(=O)Cc4ccc(C(F)(F)F)cc4)cc3)c2cc1OCCCN1CC(CO)(CO)C1 [Example 150] | ≤ 50 nM | > 500 nM |  |  | 
20 | COc1cc2ncnc(-c3ccc(NC(=O)Cc4ccc(C(F)(F)F)cc4)cc3)c2cc1O[C@H]1CCCO1 [Example 156, (S)-N-(4-(7-methoxy-6-((tetrahydrofuran-2-yl)oxy)quinazolin-4-yl)phenyl)-2-(4-(trifluoromethyl)phenyl)acetamide] |  | ≤ 200 nM | 200 to 500 nM |  | 
21 | COc1cc2ncnc(-c3ccc(NC(=O)Cc4ccc(C(F)(F)F)cc4)cc3)c2cc1OCCCN1C[C@H]2C[C@@H]1CN2C [Example 159, N-(4-(7-methoxy-6-(3-((1R,4R)-5-methyl-2,5-diazabicyclo[2.2.1]heptane-2-yl)propoxy)quinazolin-4-yl)phenyl)-2-(4-(trifluoromethyl)phenyl)acetamide] |  | ≤ 200 nM | 200 to 500 nM |  | 
22 | COc1cc2ncnc(-c3ccc(NC(=O)Cc4ccc(C(F)(F)F)cc4)cc3)c2cc1OCCCN1CCCC1 [Example 160, N-(4-(7-methoxy-6-(3-(pyrrolidin-1-yl)propoxy)quinazolin-4-yl)phenyl)-2-(4-(trifluoromethyl)phenyl)acetamide] |  | ≤ 200 nM | ≤ 200 nM |  | 
23 | COc1cc2c(-c3ccc(NC(=O)Nc4ccc(Cl)c(C(F)(F)F)c4)cc3)ncnc2cc1OCCCN1CCN(C)CC1 [Example 168, 1-(4-chloro-3-(trifluoromethyl)phenyl)-3-(4-(6-methoxy-7-(3-(4-methylpiperazin-1-yl)propoxy)quinazolin-4-yl)phenyl)urea] | 50 to 100 nM |  |  |  | 
24 | N-(4-(7-methoxy-6-(pyridin-3-ylmethoxy)quinazolin-4-yl)phenyl)-2-(4-trifluoromethyl)phenyl)acetamide [Example 157] |  |  |  | ≤ 200 nM | > 500 nM
